{"source": "the supplement of paper PMC10307832", "assay_in_all_cases": "relative viability (nuclei count vs DMSO), 5 days (fraction); higher = more cells survive", "key": {"IDH-C35 + Foretinib": {"compound": "Cc1ccccc1C(C(=O)NC1CCCCC1)N(C(=O)Cn1ccnc1C)c1cccc(F)c1 [IDH-C35] + COc1cc2c(Oc3ccc(NC(=O)C4(C(=O)Nc5ccc(F)cc5)CC4)cc3F)ccnc2cc1OCCCN1CCOCC1 [Foretinib] (partner 0.25 µM)", "summary_of_the_method": "(§1)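 Relative viability divides the nuclei count in treated wells by that in vehicle wells. Lung cancer cell lines were seeded in 1536-well plates, dosed by pin tool the next day, and fixed and stained after 5 days in one step with final 0.05% Triton X-100, 1% formaldehyde and 1 ug/ml Hoechst. Dosing was a single drug or a fixed anchor-drug dose plus five library-drug doses (not always all listed) in √10 steps, and values are medians of duplicate plates imaged at 4×.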"}, "IDH-C35 + Luminespib": {"compound": "Cc1ccccc1C(C(=O)NC1CCCCC1)N(C(=O)Cn1ccnc1C)c1cccc(F)c1 [IDH-C35] + CCNC(=O)c1noc(-c2cc(C(C)C)c(O)cc2O)c1-c1ccc(CN2CCOCC2)cc1 [Luminespib] (partner 0.01 µM)", "summary_of_the_method": "as §1"}, "IDH-C35 + Pictilisib": {"compound": "Cc1ccccc1C(C(=O)NC1CCCCC1)N(C(=O)Cn1ccnc1C)c1cccc(F)c1 [IDH-C35] + CS(=O)(=O)N1CCN(Cc2cc3nc(-c4cccc5[nH]ncc45)nc(N4CCOCC4)c3s2)CC1 [Pictilisib] (partner 1 µM)", "summary_of_the_method": "as §1"}, "IDH-C35 + Linsitinib": {"compound": "Cc1ccccc1C(C(=O)NC1CCCCC1)N(C(=O)Cn1ccnc1C)c1cccc(F)c1 [IDH-C35] + C[C@]1(O)C[C@@H](c2nc(-c3ccc4ccc(-c5ccccc5)nc4c3)c3c(N)nccn32)C1 [Linsitinib] (partner 1 µM)", "summary_of_the_method": "as §1"}}, "data": [{"cell line": "UMC-11", "values": [{"measurement": "relative viability", "setting": "IDH-C35 + Foretinib; first compound 0.08 µM", "result": 0.889}, {"measurement": "relative viability", "setting": "IDH-C35 + Foretinib; first compound 0.253 µM", "result": 1.07}, {"measurement": "relative viability", "setting": "IDH-C35 + Foretinib; first compound 0.8 µM", "result": 0.997}, {"measurement": "relative viability", "setting": "IDH-C35 + Foretinib; first compound 2.53 µM", "result": 1.06}, {"measurement": "relative viability", "setting": "IDH-C35 + Foretinib; first compound 8 µM", "result": 1.11}, {"measurement": "relative viability", "setting": "IDH-C35 + Luminespib; first compound 0.08 µM", "result": 1.01}, {"measurement": "relative viability", "setting": "IDH-C35 + Luminespib; first compound 0.253 µM", "result": 1.03}, {"measurement": "relative viability", "setting": "IDH-C35 + Luminespib; first compound 0.8 µM", "result": 1.02}, {"measurement": "relative viability", "setting": "IDH-C35 + Luminespib; first compound 2.53 µM", "result": 1.08}, {"measurement": "relative viability", "setting": "IDH-C35 + Luminespib; first compound 8 µM", "result": 1.01}, {"measurement": "relative viability", "setting": "IDH-C35 + Pictilisib; first compound 0.08 µM", "result": 0.874}, {"measurement": "relative viability", "setting": "IDH-C35 + Pictilisib; first compound 0.253 µM", "result": 0.794}, {"measurement": "relative viability", "setting": "IDH-C35 + Pictilisib; first compound 0.8 µM", "result": 0.759}, {"measurement": "relative viability", "setting": "IDH-C35 + Pictilisib; first compound 2.53 µM", "result": 0.79}, {"measurement": "relative viability", "setting": "IDH-C35 + Pictilisib; first compound 8 µM", "result": 0.889}, {"measurement": "relative viability", "setting": "IDH-C35 + Linsitinib; first compound 0.08 µM", "result": 0.942}, {"measurement": "relative viability", "setting": "IDH-C35 + Linsitinib; first compound 0.253 µM", "result": 1.06}, {"measurement": "relative viability", "setting": "IDH-C35 + Linsitinib; first compound 0.8 µM", "result": 1.04}, {"measurement": "relative viability", "setting": "IDH-C35 + Linsitinib; first compound 2.53 µM", "result": 1.04}, {"measurement": "relative viability", "setting": "IDH-C35 + Linsitinib; first compound 8 µM", "result": 0.971}]}]}
